Measured values published in patent publication US8658190B2 (priority 2005, dated 2014).
Like-named read-outs stand apart in the source and are kept apart here.

What was measured:
mycobacteria [1] = experiment: mycobactericidal / tuberculocidal activity (exposure time); assay type: cell-based
[2] = stability of glutaraldehyde concentration in solution; assay type: physicochemical; details: composition buffered to about pH 7.3 to 7.9
bacterial spores = details: background statement, cited from earlier work
mycobacteria [3] = details: 25 C, background statement; cited from earlier work

Question: Which tuberculocidal activity (mycobacteria [1]; 2.0% glutaraldehyde alone, 20° C., exposure time of 10 min) does the source give for `O=CCCCC=O` [Glutaraldehyde] here?
Answer: nor is 2.0% glutaraldehyde tuberculocidal

Question: And the “time glutaraldehyde is stable during use and re-use” value [2]?
Answer: about 14 days

Question: What about the “time to kill bacterial spores” value (bacterial spores; 25 C) of the same compound?
Answer: about 10.0 hrs

Question: And the “time to kill 6 log 10 of mycobacteria” value (mycobacteria [3])?
Answer: about 45 min

Question: Which “time to kill bacterial spores” value (bacterial spores; temperature not given) does the source give for `O=Cc1ccccc1C=O` [Ortho-phthaladehyde, ortho-phthalaldehyde] here?
Answer: about 32 hrs

Question: For `CCO` [Alcohol], which tuberculocidal activity (mycobacteria [1]; alcohol alone, 5% to 20% by volume) is on record?
Answer: not tuberculocidal
